Tests used:
[1] = tested on: rats; assay: Seizure and abnormal behavior of LY451646 and AMPA in rats; assay type: in vivo, rat; details: i.p.
[2] = tested on: rGluA1i; assay: Ca2+ influx assay in rGluA1i CHO cells (species difference); assay type: cell-based, rat; details: 3 mM glutamate
Protocol: Ca^2+ influx assays using human GluA1/flip and human stargazin co-expressing CHO cells plated at 3 × 10^4 cells/well in 96-well Black Clear plates (Corning Incorporated, Corning, NY) were performed as previously described, with some modifications. For evaluation of the species difference, rat GluA1/flip expressing CHO cells were plated. For mutant channels, the human GluA1i S743A mutant was generated using the In-Fusion HD Cloning Kit (Takara Bio Inc., Kusatsu, Japan) according to the manufacturer's protocol and transiently introduced to CHO cells by Gene Pulser II Electroporation System (Bio-Rad Laboratories, Inc., Hercules, CA). Relative increases of intracellular Ca^2+ levels were monitored for 3 min with a fluorometric imaging plate reader (CellLux, Perkin Elmer Life and Analytical Sciences, Inc., Shelton, CT). […]
Human GluA1/flip and human stargazin co-expressing CHO cells were plated at 3×10^4 cells/well in 96-well Black Clear plate (Corning Incorporated, Corning, NY). […] Relative increases of intracellular Ca^2+ levels by compounds in the presence and absence of 3 mM L-glutamate were monitored for 3 min by fluorometric imaging plate reader (CellLux, Perkin Elmer Life and Analytical Sciences, Inc., Shelton, CT). Activity of compound was defined as integration value of fluorescence value of each detection point. […] EC50 values were calculated by logistic regression analysis.

[3] = tested on: 97 targets; assay: In vitro selectivity profile (Ricerca); details: 10 μM
[4] = Pharmacokinetics in monkeys; assay type: in vivo; details: monkey, plasma, po, 0.03 mg/kg
[5] = tested on: rats; assay: 5-choice serial reaction time task (5CSRTT); assay type: in vivo, rat; details: 0.3 mg/kg, p.o.
Protocol: The experiment consists of two sessions, training and testing session. The training session was initiated with 7-week-old of male Long-Evans rats, and the testing session was conducted at 12-13 months old. Throughout the experimental period, food was restricted to 80-85% of their free-feeding body weight. The training and testing were conducted using four operant chambers enclosed in sound-attenuating boxes (Med Associates Inc., St Albans, VT). Each chamber contained a curved wall with five contiguous apertures. Food pellets were supplied automatically into a magazine located in the opposite wall of the five contiguous apertures in the chamber, and a photocell beam was used to detect head entries into the magazine. In the training session, a pellet was delivered into the magazine at the start of each session to facilitate initiation of the first trial. After a 5 s-intertrial interval (ITI), a light stimulus was presented in one of the five apertures followed by the 5 s-limited hold without light stimulus. […] Rats were required to nose-poke in the illuminated aperture. […] Incorrect responses (responses in non-illuminated apertures), omissions (failure to respond during the limited hold) and premature responses (responses occurring prior to the presentation of the stimulus) were punished by a 5 s-timeout periods with extinction of the house light and no delivery of food. Accuracy was calculated as the number of correct responses / (number of correct responses + number of incorrect responses) × 100. Each session lasted for 35 min or until 100 trials were completed. Rats were trained until they achieved criterion performance (>75% accuracy and <20 omissions) over 3 consecutive days. In the testing session, the duration of light stimuli on an aperture was set to 0.5 s with a variable ITI schedule (4, 5, 7, or 10 s). Equal numbers of each ITI were randomly presented over 100 trials. TAK-653 at 0.3 mg/kg or vehicle was orally administered 2 h prior to testing in a cross-over design. Data were indicated as the mean ± SEM of number of correct responses, omissions, and premature responses. For sub-population analyses, a median split of the population was undertaken based on their correct response scores under vehicle treatment to ensure no interaction with performance changes across the study (Robinson, 2012).

[6] = tested on: rats; assay: Evaluation of convulsion; assay type: in vivo, rat; details: 100 mg/kg, p.o., 4 h after dosing
Protocol: The data were extracted from the studies conducted in accordance with the Good Laboratory Practice Regulation. […] The dose levels in the first study and second study were set at "100, 15 and 5 mg/kg, p.o." and "50, 15 and 5 mg/kg, p.o.", respectively. The dosing suspensions were administered into the stomach via a catheter in the morning at the dose volume of 5 mL/kg. Cage side observations to confirm tonic or […] convulsions were conducted before and at 1, 2, 4, 8 and 24 h after dosing in the first study and before and at 1, 4 and 24 h after dosing in the second study.

SMILES	Abnormal behavior ([1]; 10 mg/kg)	Seizure ([1]; 30 mg/kg)	Fold difference in the EC50 value between rat and human receptors [2] [fold]	Selectivity against 97 targets [3]	Tmax [4] [h]	half-life [4] [min]	Premature responses [5]	5CSRTT performance in the whole population ([5]; 2 h prior to the trial)	Correct responses in the poor performing rats ([5]; median split)	Omissions in the poor performing rats ([5]; median split)	Convulsions [6]
Cc1onc(O)c1CC(N)C(=O)O (stereo not drawn) [AMPA, alpha-amino-3-hydroxy-5-methyl-4-isoxazole-propionic acid]	abnormal behavior such as head turning	induced seizure									
CC1=CN2CCS(=O)(=O)N=C2C(c2ccc(OC3CCCCC3)cc2)=N1 [TAK-653, 9-[4-(Cyclohexyloxy)phenyl]-7-methyl-3,4-dihydropyrazino[2,1-c][1,2,4]thiadiazine 2,2-dioxide]			1.1	highly selective	8	564 ± 228	did not affect	no significant improvement	significantly increased	decreased	chronic and tonic convulsions in 1 animal

— publication PMC8282797, “Strictly regulated agonist-dependent activation of AMPA-R is the key characteristic of TAK-653 for robust synaptic responses and cognitive improvement” (Scientific Reports, 2021)
